21 compounds from US9957263B2, “Bromodomain inhibitors” (AbbVie Inc., priority 2013, dated 2018) can be followed below.

The target in one test is BRD4 (BDI_K57-E168) (Homo sapiens (Human), UniProt O60885). The experiment in a line: TR-FRET bromodomain binding assay, BRD4 first bromodomain. The note with it: His-tagged BD1, Alexa647-labeled probe 100 nM. On the procedure:
(§1) A time-resolved fluorescence resonance energy transfer (TR-FRET) assay was used to determine the affinities of compounds of the Examples listed in Table 1 for each bromodomain of BRD4. His-tagged first (BD1: amino acids K57-E168) and second (BD2: amino acids E352-E168) bromodomains of BRD4 were expressed and purified. An Alexa647-labeled BET-inhibitor was used as the fluorescent probe in the assay.
(§2) Compound dilution series were prepared in DMSO via a 3-fold serial dilution from 2.5 mM to 42 nM. Compounds were then diluted 6:100 in assay buffer (20 mM Sodium Phosphate, pH 6.0, 50 mM NaCl, 1 mM Ethylenediaminetetraacetic acid disodium salt dihydrate, 0.01% Triton X-100, 1 mM DL-Dithiothreitol) to yield 3× working solutions. Six microliters (μL) of the working solution was then transferred to white, low-volume assay plates (Costar #3673). A 1.5× assay mixture containing His-tagged bromodomain, Europium-conjugated anti-His antibody (Invitrogen PV5596) and the Alexa-647-conjugated probe molecule was also prepared. Twelve μL of this solution were added to the assay plate to reach a final volume of 18 μL. The final concentration of 1× assay buffer contains 2% DMSO, 50 μM-0.85 nM compound, 8 nM His-tagged bromodomain, 1 nM Europium-conjugated anti-His-tag antibody and 100 nM or 30 nM probe (for BDI or BDII, respectively). After a one-hour incubation at room temperature, TR-FRET ratios were determined using an Envision multilabel plate reader (Ex 340, Em […]).
(§3) TR-FRET data were normalized to the means of 24 no-compound controls (“high”) and 8 controls containing 1 μM un-labeled probe (“low”). Percent inhibition was plotted as a function of compound concentration and the data were fit with the 4 parameter logistic equation to obtain IC50s. Inhibition constants (Ki) were calculated from the IC50s, probe Kd and probe concentration. Typical Z′ values were between 0.65 and 0.75. The minimum significant ratio was determined to evaluate assay reproducibility (Eastwood et al., (2006) J Biomol Screen, 11: 253-261). The MSR was determined to be 2.03 for BDI and 1.93 for BDII, and a moving MSR (last six run MSR overtime) for both BDI and BDII was typically <3.
(TR-FRET usually uses a lanthanide donor and a delayed reading to cut background.)

The next test addresses BRD4 (BDII_E352-M457) (Homo sapiens (Human), UniProt O60885). The experiment in a line: TR-FRET bromodomain binding assay, BRD4 second bromodomain. The conditions noted are these: His-tagged BD2, Alexa647-labeled probe 30 nM. Here is the method:
as §1, §2, §3

The term Ki denotes the equilibrium dissociation constant of an inhibitor or competing ligand from its target. For `Cn1cc(-c2cc(S(C)(=O)=O)ccc2Oc2cccc(C(=O)N3CCN(CCO)CC3)c2)c2cc[nH]c2c1=O` [Example 26, 4-[2-(3-{[4-(2-hydroxyethyl)piperazin-1-yl]carbonyl}phenoxy)-5-(methylsulfonyl)phenyl]-6-methyl-1,6-dihydro-7H-pyrrolo[2,3-c]pyridin-7-one], the Ki at BRD4 (BDI_K57-E168) was 27 nM; on BRD4 (BDII_E352-M457), 15 nM.
The corresponding values for `Cn1cc(-c2cc(S(C)(=O)=O)ccc2Oc2cccc(C(=O)NCCCN3CCCC3=O)c2)c2cc[nH]c2c1=O` [Example 27, 3-[2-(6-methyl-7-oxo-6,7-dihydro-1H-pyrrolo[2,3-c]pyridin-4-yl)-4-(methylsulfonyl)phenoxy]-N-[3-(2-oxopyrrolidin-1-yl)propyl]benzamide] are 26 nM and 11 nM.
With `Cn1cc(-c2cc(S(C)(=O)=O)ccc2Oc2cccc(C(=O)N3CCN(C4CCCC4)CC3)c2)c2cc[nH]c2c1=O` [Example 28, 4-[2-{3-[(4-cyclopentylpiperazin-1-yl)carbonyl]phenoxy}-5-(methylsulfonyl)phenyl]-6-methyl-1,6-dihydro-7H-pyrrolo[2,3-c]pyridin-7-one], the Ki at BRD4 (BDI_K57-E168) was found to be 13 nM; on BRD4 (BDII_E352-M457), 11 nM.
Consider `CN(C)CCN1CCN(C(=O)c2cccc(Oc3ccc(S(C)(=O)=O)cc3-c3cn(C)c(=O)c4[nH]ccc34)c2)CC1` [Example 29, 4-{2-[3-({4-[2-(dimethylamino)ethyl]piperazin-1-yl}carbonyl)phenoxy]-5-(methylsulfonyl)phenyl}-6-methyl-1,6-dihydro-7H-pyrrolo[2,3-c]pyridin-7-one], for which the Ki on BRD4 (BDI_K57-E168) turned out to be 19 nM; at BRD4 (BDII_E352-M457), 9.1 nM.
For `CC(=O)N1CCN(C(=O)c2cccc(Oc3ccc(S(C)(=O)=O)cc3-c3cn(C)c(=O)c4[nH]ccc34)c2)CC1` [Example 30, 4-[2-{3-[(4-acetylpiperazin-1-yl)carbonyl]phenoxy}-5-(methylsulfonyl)phenyl]-6-methyl-1,6-dihydro-7H-pyrrolo[2,3-c]pyridin-7-one] the same measures were 28 nM and 17 nM.
For `Cn1cc(-c2cc(S(C)(=O)=O)ccc2Oc2cccc(C(=O)N3CCC(C(F)(F)F)CC3)c2)c2cc[nH]c2c1=O` [Example 31, 6-methyl-4-[5-(methylsulfonyl)-2-(3-{[4-(trifluoromethyl)piperidin-1-yl]carbonyl}phenoxy)phenyl]-1,6-dihydro-7H-pyrrolo[2,3-c]pyridin-7-one] the same measures were 21 nM and 11 nM.
The corresponding values for `CN(CC#N)C(=O)c1cccc(Oc2ccc(S(C)(=O)=O)cc2-c2cn(C)c(=O)c3[nH]ccc23)c1` [Example 32, N-(cyanomethyl)-N-methyl-3-[2-(6-methyl-7-oxo-6,7-dihydro-1H-pyrrolo[2,3-c]pyridin-4-yl)-4-(methylsulfonyl)phenoxy]benzamide] are 21 nM and 10 nM.
With `CN(C)CCNC(=O)c1cccc(Oc2ccc(S(C)(=O)=O)cc2-c2cn(C)c(=O)c3[nH]ccc23)c1` [Example 33, N-[2-(dimethylamino)ethyl]-3-[2-(6-methyl-7-oxo-6,7-dihydro-1H-pyrrolo[2,3-c]pyridin-4-yl)-4-(methylsulfonyl)phenoxy]benzamide], the Ki came to 8.1 nM on BRD4 (BDI_K57-E168) and 3.1 nM at BRD4 (BDII_E352-M457).
For `Cn1cc(-c2cc(S(C)(=O)=O)ccc2Oc2cccc(C(=O)NC[C@H]3CCCO3)c2)c2cc[nH]c2c1=O` [Example 34, 3-[2-(6-methyl-7-oxo-6,7-dihydro-1H-pyrrolo[2,3-c]pyridin-4-yl)-4-(methylsulfonyl)phenoxy]-N-[(2R)-tetrahydrofuran-2-ylmethyl]benzamide] the same measures were 15 nM and 3.6 nM.
For `Cn1cc(-c2cc(S(C)(=O)=O)ccc2Oc2cccc(C(=O)NCCN3CCCC3)c2)c2cc[nH]c2c1=O` [Example 35, 3-[2-(6-methyl-7-oxo-6,7-dihydro-1H-pyrrolo[2,3-c]pyridin-4-yl)-4-(methylsulfonyl)phenoxy]-N-[2-(pyrrolidin-1-yl)ethyl]benzamide] the same measures were 3.1 nM and 1.9 nM.
The corresponding values for `Cn1cc(-c2cc(S(C)(=O)=O)ccc2Oc2cccc(C(=O)NCc3cc(F)cc(F)c3)c2)c2cc[nH]c2c1=O` [Example 36, N-(3,5-difluorobenzyl)-3-[2-(6-methyl-7-oxo-6,7-dihydro-1H-pyrrolo[2,3-c]pyridin-4-yl)-4-(methylsulfonyl)phenoxy]benzamide] are 14 nM and 5.7 nM.
Take `Cn1cc(-c2cc(S(C)(=O)=O)ccc2Oc2cccc(C(=O)NCc3ccc(F)cc3F)c2)c2cc[nH]c2c1=O` [Example 37, N-(2,4-difluorobenzyl)-3-[2-(6-methyl-7-oxo-6,7-dihydro-1H-pyrrolo[2,3-c]pyridin-4-yl)-4-(methylsulfonyl)phenoxy]benzamide]: the Ki at BRD4 (BDI_K57-E168) is 18 nM; on BRD4 (BDII_E352-M457), 6 nM.
For `Cn1cc(-c2cc(S(C)(=O)=O)ccc2Oc2cccc(NS(=O)(=O)Cc3ccccc3)c2)c2cc[nH]c2c1=O` [Example 38, N-{3-[2-(6-methyl-7-oxo-6,7-dihydro-1H-pyrrolo[2,3-c]pyridin-4-yl)-4-(methylsulfonyl)phenoxy]phenyl}-1-phenylmethanesulfonamide] the same measures were 5.1 nM and 1.9 nM.
The corresponding values for `COc1ccc(S(=O)(=O)Nc2cccc(Oc3ccc(S(C)(=O)=O)cc3-c3cn(C)c(=O)c4[nH]ccc34)c2)cc1` [Example 39, 4-methoxy-N-{3-[2-(6-methyl-7-oxo-6,7-dihydro-1H-pyrrolo[2,3-c]pyridin-4-yl)-4-(methylsulfonyl)phenoxy]phenyl}benzenesulfonamide] are 4.6 nM and 2.1 nM.
The corresponding values for `Cn1cc(-c2cc(S(C)(=O)=O)ccc2Oc2cccc(NS(=O)(=O)c3cccc(F)c3)c2)c2cc[nH]c2c1=O` [Example 40, 3-fluoro-N-{3-[2-(6-methyl-7-oxo-6,7-dihydro-1H-pyrrolo[2,3-c]pyridin-4-yl)-4-(methylsulfonyl)phenoxy]phenyl}benzenesulfonamide] are 5.4 nM and 2 nM.
Turning to `Cn1cc(-c2cc(S(C)(=O)=O)ccc2Oc2cccc(NS(=O)(=O)c3ccc(F)cc3)c2)c2cc[nH]c2c1=O` [Example 41, 4-fluoro-N-{3-[2-(6-methyl-7-oxo-6,7-dihydro-1H-pyrrolo[2,3-c]pyridin-4-yl)-4-(methylsulfonyl)phenoxy]phenyl}benzenesulfonamide], the Ki turned out to be 11 nM at BRD4 (BDI_K57-E168) and 5.1 nM on BRD4 (BDII_E352-M457).
The corresponding values for `COc1cccc(S(=O)(=O)Nc2cccc(Oc3ccc(S(C)(=O)=O)cc3-c3cn(C)c(=O)c4[nH]ccc34)c2)c1` [Example 42, 3-methoxy-N-{3-[2-(6-methyl-7-oxo-6,7-dihydro-1H-pyrrolo[2,3-c]pyridin-4-yl)-4-(methylsulfonyl)phenoxy]phenyl}benzenesulfonamide] are 9.1 nM and 3.5 nM.
For the compound `Cn1cc(-c2cc(S(C)(=O)=O)ccc2Oc2cccc(NS(=O)(=O)c3ccc([N+](=O)[O-])cc3)c2)c2cc[nH]c2c1=O` [Example 43, N-{3-[2-(6-methyl-7-oxo-6,7-dihydro-1H-pyrrolo[2,3-c]pyridin-4-yl)-4-(methylsulfonyl)phenoxy]phenyl}-4-nitrobenzenesulfonamide], the Ki turned out to be 5 nM at BRD4 (BDI_K57-E168) and 3 nM at BRD4 (BDII_E352-M457).
The corresponding values for `CC(=O)c1ccc(S(=O)(=O)Nc2cccc(Oc3ccc(S(C)(=O)=O)cc3-c3cn(C)c(=O)c4[nH]ccc34)c2)cc1` [Example 44, 4-acetyl-N-{3-[2-(6-methyl-7-oxo-6,7-dihydro-1H-pyrrolo[2,3-c]pyridin-4-yl)-4-(methylsulfonyl)phenoxy]phenyl}benzenesulfonamide] are 4.9 nM and 2.1 nM.
The corresponding values for `CN(C)c1cccc2c(S(=O)(=O)Nc3cccc(Oc4ccc(S(C)(=O)=O)cc4-c4cn(C)c(=O)c5[nH]ccc45)c3)cccc12` [Example 45, 5-(dimethylamino)-N-{3-[2-(6-methyl-7-oxo-6,7-dihydro-1H-pyrrolo[2,3-c]pyridin-4-yl)-4-(methylsulfonyl)phenoxy]phenyl}naphthalene-1-sulfonamide] are 16 nM and 3.3 nM.
The corresponding values for `CC(C)c1ccc(S(=O)(=O)Nc2cccc(Oc3ccc(S(C)(=O)=O)cc3-c3cn(C)c(=O)c4[nH]ccc34)c2)cc1` [Example 46, N-{3-[2-(6-methyl-7-oxo-6,7-dihydro-1H-pyrrolo[2,3-c]pyridin-4-yl)-4-(methylsulfonyl)phenoxy]phenyl}-4-(propan-2-yl)benzenesulfonamide] are 10 nM and 1.8 nM.
